Reference: PubChem BioAssay (NCI)
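Method: 48-hour compound exposure of cells in 96-well plates, five concentrations, linear interpolation of endpoints. GI50 is the concentration that inhibits growth by half. The concentration for full growth arrest is given as TGI.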

tested on: SK-MEL-28 melanoma; assay: inhibition of tumour cell growth, NCI panel, 48 h

Compound	GI50	TGI
COc1cc2c(cc1OCCCOc1ccc(-c3nc4ccc(N5CCN(C)CC5)cc4[nH]3)cc1)N=C[C@@H]1CCCN1C2=O	< 0.01 µM	54.5 µM
Cc1ccc(-c2n[nH]c(=O)c3noc(-c4ccc(C)cc4)c23)cc1	10.2 µM	> 100 µM
Nc1ccn(C2OC(C(OC3OC(CO)C(O)C(N)C3O)C(O)C(O)C(O)C(O)CO)C(N)C(O)C2O)c(=O)n1 (stereo not drawn)		> 100 µM
O=C(c1ccc2ccccc2c1)c1c(C(F)(F)F)n([O-])c2ccc(F)cc2[n+]1=O	1.68 µM	3.18 µM
COc1ccc2c(c1)/C(=N/OC(C)=O)c1c-2cnc2ccccc12	31.6 µM	77.2 µM
CCOC(=O)c1c(C)n(Cc2ccccc2)c2c1cc1oc(=O)c(=O)n3cnc2c13	40.4 µM	> 50 µM
CN(C(=O)CNC(=O)/C=C/c1cccc(Cl)c1)C1CCS(=O)(=O)CC1	59.3 µM	> 100 µM
C/C(=N/O)c1ccc(Nc2cc(-n3ccnc3)c3ccccc3n2)cc1	70.4 µM	> 100 µM
NNC(=O)C(O)C(O)C(=O)NN (stereo not drawn)		> 100 µM

tested on: SK-MEL-5 melanoma; assay: inhibition of tumour cell growth, NCI panel, 48 h

Compound	GI50	TGI
CN1CCN(c2ccc3nc(-c4ccc(OCCCCN5CCN(CCCCN6C(=O)c7cccc8cccc(c78)C6=O)CC5)cc4)[nH]c3c2)CC1	18.8 µM	76.9 µM
CC1=C(N2CC2)C(=O)c2ccccc2C1=O		0.405 µM
NC(=O)c1ccc(N(C(N)=O)c2c(F)cccc2F)nc1-c1ccc(F)cc1F	> 100 µM	> 100 µM
Cc1ccc(S(=O)(=O)NC(CO)C(=O)O)cc1 (stereo not drawn)		> 100 µM
H-QIYKKYRTWYRKAWKVLGKV-NH2	2.84 µM	8.7 µM
COc1cccc(NC2=C(Cl)C(=O)N(Cc3ccc(Cl)cc3)C2=O)c1	1.21 µM	6.09 µM
CC(N1CCOCC1)C(O)(c1ccccc1)c1ccccn1 (stereo not drawn)		> 100 µM
CC(/C=N/N=C(N)N)=N\N=C(N)N	> 79.5 µM	604 µM
O=C(CCCCCCCCC(=O)N/N=C\c1cc(Cl)ccc1O)N/N=C\c1cc(Cl)ccc1O	0.161 µM	0.659 µM
Oc1ccc(Cl)cc1/C=N\NC(=S)N/N=C/c1cc(Cl)ccc1O	1.34 µM	3.88 µM
CN=C(N)N/N=C(\C)c1ccc2c(c1)Cc1ccccc1-2	1.61 µM	2.95 µM
COc1cc(Cn2c(-c3ccccc3)cc3c2-c2oncc2CC3)cc(OC)c1	0.372 µM	2.02 µM
COc1cc2c(cc1OCCCOc1ccc(-c3nc4ccc(N5CCN(C)CC5)cc4[nH]3)cc1)N=C[C@@H]1CCCN1C2=O	< 0.01 µM	< 0.01 µM
Cc1ccc(-c2n[nH]c(=O)c3noc(-c4ccc(C)cc4)c23)cc1	0.97 µM	> 100 µM
Nc1ccn(C2OC(C(OC3OC(CO)C(O)C(N)C3O)C(O)C(O)C(O)C(O)CO)C(N)C(O)C2O)c(=O)n1 (stereo not drawn)		> 100 µM
O=C(c1ccc2ccccc2c1)c1c(C(F)(F)F)n([O-])c2ccc(F)cc2[n+]1=O	1.75 µM	3.16 µM
COc1ccc2c(c1)/C(=N/OC(C)=O)c1c-2cnc2ccccc12	17.6 µM	48.5 µM
CCOC(=O)c1c(C)n(Cc2ccccc2)c2c1cc1oc(=O)c(=O)n3cnc2c13	10.4 µM	26.7 µM
C/C(=N/O)c1ccc(Nc2cc(-n3ccnc3)c3ccccc3n2)cc1	16.3 µM	> 100 µM
NNC(=O)C(O)C(O)C(=O)NN (stereo not drawn)		> 100 µM

tested on: SW-620 colon; assay: inhibition of tumour cell growth, NCI panel, 48 h

Compound	GI50	TGI
CN1CCN(c2ccc3nc(-c4ccc(OCCCCN5CCN(CCCCN6C(=O)c7cccc8cccc(c78)C6=O)CC5)cc4)[nH]c3c2)CC1	39.2 µM	> 100 µM
CC1=C(N2CC2)C(=O)c2ccccc2C1=O		1.68 µM
NC(=O)c1ccc(N(C(N)=O)c2c(F)cccc2F)nc1-c1ccc(F)cc1F	> 100 µM	> 100 µM
Cc1ccc(S(=O)(=O)NC(CO)C(=O)O)cc1 (stereo not drawn)		> 100 µM
H-QIYKKYRTWYRKAWKVLGKV-NH2	13 µM	43.6 µM
COc1cccc(NC2=C(Cl)C(=O)N(Cc3ccc(Cl)cc3)C2=O)c1	0.847 µM	14.7 µM
CC(N1CCOCC1)C(O)(c1ccccc1)c1ccccn1 (stereo not drawn)		> 100 µM
CC(/C=N/N=C(N)N)=N\N=C(N)N	15 µM	2070 µM
O=C(CCCCCCCCC(=O)N/N=C\c1cc(Cl)ccc1O)N/N=C\c1cc(Cl)ccc1O	0.916 µM	> 100 µM
Oc1ccc(Cl)cc1/C=N\NC(=S)N/N=C/c1cc(Cl)ccc1O	4.41 µM	> 100 µM
CN=C(N)N/N=C(\C)c1ccc2c(c1)Cc1ccccc1-2	1.43 µM	3.29 µM
COc1cc(Cn2c(-c3ccccc3)cc3c2-c2oncc2CC3)cc(OC)c1	0.36 µM	> 100 µM
COc1cc2c(cc1OCCCOc1ccc(-c3nc4ccc(N5CCN(C)CC5)cc4[nH]3)cc1)N=C[C@@H]1CCCN1C2=O	< 0.01 µM	15.2 µM
Cc1ccc(-c2n[nH]c(=O)c3noc(-c4ccc(C)cc4)c23)cc1	0.427 µM	> 100 µM
Nc1ccn(C2OC(C(OC3OC(CO)C(O)C(N)C3O)C(O)C(O)C(O)C(O)CO)C(N)C(O)C2O)c(=O)n1 (stereo not drawn)		> 100 µM
O=C(c1ccc2ccccc2c1)c1c(C(F)(F)F)n([O-])c2ccc(F)cc2[n+]1=O	1.5 µM	3.2 µM
COc1ccc2c(c1)/C(=N/OC(C)=O)c1c-2cnc2ccccc12	67.1 µM	> 100 µM
CCOC(=O)c1c(C)n(Cc2ccccc2)c2c1cc1oc(=O)c(=O)n3cnc2c13	14.1 µM	34.7 µM
CN(C(=O)CNC(=O)/C=C/c1cccc(Cl)c1)C1CCS(=O)(=O)CC1	3.51 µM	> 100 µM
C/C(=N/O)c1ccc(Nc2cc(-n3ccnc3)c3ccccc3n2)cc1	41.8 µM	> 100 µM
NNC(=O)C(O)C(O)C(=O)NN (stereo not drawn)		> 100 µM
